{
  "source": "ChEMBL document CHEMBL5338820",
  "about": "“Discovery and Design of Novel Cyclic Peptides as Specific Inhibitors Targeting CCN2 and Disrupting CCN2/EGFR Interaction for Kidney Fibrosis Treatment” (J Med Chem, 2023)",
  "key": {"[1]": {"target": "T1, CCN family member 2 (Homo sapiens) (UniProt P29279)", "T1 sequence (whole entry)": "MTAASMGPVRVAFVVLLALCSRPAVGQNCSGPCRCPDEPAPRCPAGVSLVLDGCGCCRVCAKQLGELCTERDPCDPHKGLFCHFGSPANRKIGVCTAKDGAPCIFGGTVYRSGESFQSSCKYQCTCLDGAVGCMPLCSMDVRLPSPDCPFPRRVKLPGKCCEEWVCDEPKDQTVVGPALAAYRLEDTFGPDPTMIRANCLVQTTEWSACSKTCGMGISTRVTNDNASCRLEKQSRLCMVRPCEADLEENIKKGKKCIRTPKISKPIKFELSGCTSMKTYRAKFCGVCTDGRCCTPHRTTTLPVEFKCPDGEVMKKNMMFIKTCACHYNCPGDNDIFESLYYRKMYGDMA", "experiment": "Inhibition of recombinant human CCN2 FL domain expressed in human […] cells assessed as reduction in COL1A1 synthesis at 20 uM incubated for 24 hrs by Western blotting assay", "assay_type": "cell-based"}, "[2]": {"target": "T1, CCN family member 2 (Homo sapiens)", "experiment": "Inhibition of recombinant human CCN2 FL domain expressed in human HK-1 cells assessed as reduction in fibronectin synthesis at 20 uM incubated for 24 hrs by Western blotting assay", "assay_type": "cell-based"}, "[3]": {"target": "T1, CCN family member 2 (Homo sapiens)", "experiment": "Inhibition of recombinant human CCN2 FL domain expressed in human […] cells assessed as reduction in COL1A1 synthesis at 4 to 100 uM incubated for 24 hrs by Western blotting assay", "assay_type": "cell-based", "details": "dose 4-100 µM"}, "CCN2-EGFR (Homo sapiens) [4]": {"target": "T2, CCN2-EGFR (Homo sapiens) (UniProt P00533+P29279)", "T2 sequence (P00533 whole entry, looked up, one chain of several, the tested form may be a part)": "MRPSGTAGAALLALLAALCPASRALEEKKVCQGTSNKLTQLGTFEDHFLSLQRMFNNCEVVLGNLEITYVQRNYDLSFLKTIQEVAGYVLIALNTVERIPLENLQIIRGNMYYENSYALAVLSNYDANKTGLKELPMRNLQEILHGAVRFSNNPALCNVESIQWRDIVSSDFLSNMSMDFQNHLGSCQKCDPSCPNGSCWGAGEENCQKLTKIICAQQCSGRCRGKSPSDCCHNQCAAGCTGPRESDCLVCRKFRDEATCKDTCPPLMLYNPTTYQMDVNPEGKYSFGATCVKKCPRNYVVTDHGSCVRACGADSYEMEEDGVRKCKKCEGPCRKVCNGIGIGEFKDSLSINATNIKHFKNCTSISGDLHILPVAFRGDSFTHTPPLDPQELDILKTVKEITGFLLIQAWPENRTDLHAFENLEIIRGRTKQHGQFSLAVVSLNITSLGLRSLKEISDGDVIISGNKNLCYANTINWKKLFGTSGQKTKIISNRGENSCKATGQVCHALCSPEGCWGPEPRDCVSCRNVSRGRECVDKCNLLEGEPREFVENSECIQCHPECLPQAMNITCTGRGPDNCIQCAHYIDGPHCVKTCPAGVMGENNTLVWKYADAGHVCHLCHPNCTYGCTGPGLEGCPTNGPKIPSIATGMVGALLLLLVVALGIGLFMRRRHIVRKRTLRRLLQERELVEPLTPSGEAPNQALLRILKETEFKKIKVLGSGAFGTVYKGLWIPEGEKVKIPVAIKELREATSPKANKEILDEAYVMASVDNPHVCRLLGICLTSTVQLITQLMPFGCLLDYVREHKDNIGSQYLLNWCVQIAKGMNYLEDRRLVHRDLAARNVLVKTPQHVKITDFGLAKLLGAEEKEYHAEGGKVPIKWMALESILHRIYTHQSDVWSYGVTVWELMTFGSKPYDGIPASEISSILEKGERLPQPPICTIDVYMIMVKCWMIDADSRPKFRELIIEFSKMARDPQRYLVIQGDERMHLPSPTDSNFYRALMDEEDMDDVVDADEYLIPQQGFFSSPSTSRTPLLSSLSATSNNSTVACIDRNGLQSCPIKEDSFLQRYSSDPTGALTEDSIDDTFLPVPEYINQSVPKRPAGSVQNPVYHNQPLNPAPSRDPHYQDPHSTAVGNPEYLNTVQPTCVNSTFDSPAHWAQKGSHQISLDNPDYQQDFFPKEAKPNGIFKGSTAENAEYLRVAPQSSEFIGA", "experiment": "Inhibition of His-tagged full length human CCN2 FL domain/human Fc-tagged EGFR protein-protein interaction using TMB as chromogenic substrate at 100 uM incubated for 140 mins by microplate reader assay relative to control"}, "CCN2-EGFR (Homo sapiens) [5]": {"target": "T2, CCN2-EGFR (Homo sapiens)", "experiment": "Inhibition of His-tagged full length human CCN2 CT domain/human Fc-tagged EGFR protein-protein interaction using TMB as chromogenic substrate at 100 uM incubated for 140 mins by microplate reader assay relative to control"}, "[6]": {"target": "T1, CCN family member 2 (Homo sapiens)", "experiment": "Inhibition of recombinant human CCN2 FL domain expressed in human […] cells assessed as reduction in fibronectin synthesis at 4 to 100 uM incubated for 24 hrs by Western blotting assay", "assay_type": "cell-based", "details": "dose 4-100 µM"}, "[7]": {"target": "T1, CCN family member 2 (Homo sapiens)", "experiment": "Inhibition of recombinant human CCN2 FL domain expressed in human […] cells assessed as reduction in STAT3 phosphorylation at 100 uM incubated for 24 hrs by Western blotting assay", "assay_type": "cell-based"}, "[8]": {"target": "T1, CCN family member 2 (Homo sapiens)", "experiment": "Inhibition of recombinant human CCN2 CT domain expressed in human […] cells assessed as reduction in fibronectin synthesis at 100 uM incubated for 24 hrs by Western blotting assay", "assay_type": "cell-based"}, "[9]": {"target": "T1, CCN family member 2 (Homo sapiens)", "experiment": "Inhibition of recombinant human CCN2 CT domain expressed in human […] cells assessed as reduction in COL1A1 synthesis at 100 uM incubated for 24 hrs by Western blotting assay", "assay_type": "cell-based"}, "CCN family member 2": {"target": "T3, CCN family member 2 (Homo sapiens, UniProt P29279)", "T3 sequence (P29279 whole entry)": "T1 sequence (whole entry)", "experiment": "Binding affinity to His-tagged full length human CCN2 CT domain assessed as dissociation constant by isothermal titration calorimetry assay"}, "[10]": {"experiment": "Cmax in Sprague-Dawley rat at 1 mg/kg,SC measured upto 48 hrs by LC-MS/MS analysis", "assay_type": "ADME, organism-based", "parameters": "time < 48 hrs, dose 1 mg/kg, route sc", "details": "in vivo"}, "[11]": {"experiment": "Tmax in Sprague-Dawley rat at 1 mg/kg,SC measured upto 48 hrs by LC-MS/MS analysis", "assay_type": "ADME, organism-based", "details": "in vivo"}, "[12]": {"experiment": "Half life in Sprague-Dawley rat at 1 mg/kg,SC measured upto 48 hrs by LC-MS/MS analysis", "assay_type": "ADME, organism-based", "details": "in vivo"}, "[13]": {"experiment": "AUC (0-t) in Sprague-Dawley rat at 1 mg/kg,SC measured upto 48 hrs by LC-MS/MS analysis", "assay_type": "ADME, organism-based", "parameters": "time < 48 hrs, dose 1 mg/kg, route sc", "details": "in vivo"}, "[14]": {"experiment": "Toxicity in Unilateral ureteric obstruction C57BL/6J mouse model assessed as change in hair color at 50 microg/kg,ip administrated for 14 days", "details": "in vivo, 0.05 mg/kg, 336 h, dose 50 µg/kg, time 14 day"}, "[15]": {"experiment": "Toxicity in Unilateral ureteric obstruction C57BL/6J mouse model assessed as change in behaviour at 50 microg/kg,ip administrated for 14 days", "details": "in vivo, 0.05 mg/kg, 336 h, dose 50 µg/kg, time 14 day"}, "[16]": {"experiment": "Toxicity in Unilateral ureteric obstruction C57BL/6J mouse model assessed as change in food consumption at 50 microg/kg,ip administrated for 14 days", "details": "in vivo, 0.05 mg/kg, 336 h, dose 50 µg/kg, time 14 day"}, "[17]": {"experiment": "Toxicity in Unilateral ureteric obstruction C57BL/6J mouse model assessed as change in body weight at 50 microg/kg,ip administrated for 14 days", "details": "in vivo, 0.05 mg/kg, 336 h, dose 50 µg/kg, time 14 day"}, "Mus musculus [18]": {"tested_on": "Mus musculus", "experiment": "Antifibrotic activity against Unilateral ureteric obstruction ligation induced C57BL/6J mouse kidney fibrosis model assessed as reduction of renal tubular injury at 50 microg/kg,ip administrated for 14 days by hematoxylin and eosin staining based analysis", "assay_type": "functional, organism-based", "details": "dose 50.0 µg/kg, time 14.0 day"}, "Mus musculus [19]": {"tested_on": "Mus musculus", "experiment": "Antifibrotic activity against Unilateral ureteric obstruction ligation induced C57BL/6J mouse kidney fibrosis model assessed as reduction of inflammatory infiltration at 50 microg/kg,ip administrated for 14 days by hematoxylin and eosin staining based analysis", "assay_type": "functional, organism-based", "details": "dose 50.0 µg/kg, time 14.0 day"}, "Mus musculus [20]": {"tested_on": "Mus musculus", "experiment": "Antifibrotic activity against Unilateral ureteric obstruction ligation induced C57BL/6J mouse kidney fibrosis model assessed as reduction of collagen formation at 50 microg/kg,ip administrated for 14 days by […] staining based analysis", "assay_type": "functional, organism-based", "details": "dose 50.0 µg/kg, time 14.0 day"}, "Mus musculus [21]": {"tested_on": "Mus musculus", "experiment": "Antifibrotic activity against Unilateral ureteric obstruction ligation induced C57BL/6J mouse kidney fibrosis model assessed as downregulation of EGFR phosphorylation at 50 microg/kg,ip administrated for 14 days by Western blotting analysis", "assay_type": "functional, organism-based", "details": "dose 50.0 µg/kg, time 14.0 day"}, "Mus musculus [22]": {"tested_on": "Mus musculus", "experiment": "Antifibrotic activity against Unilateral ureteric obstruction ligation induced C57BL/6J mouse kidney fibrosis model assessed as downregulation of STAT3 phosphorylation at 50 microg/kg,ip administrated for 14 days by Western blotting analysis", "assay_type": "functional, organism-based", "details": "dose 50.0 µg/kg, time 14.0 day"}, "Mus musculus [23]": {"tested_on": "Mus musculus", "experiment": "Antifibrotic activity against Unilateral ureteric obstruction ligation induced C57BL/6J mouse kidney fibrosis model assessed as downregulation of fibronectin synthesis at 50 microg/kg,ip administrated for 14 days by Western blotting analysis", "assay_type": "functional, organism-based", "details": "dose 50.0 µg/kg, time 14.0 day"}, "Mus musculus [24]": {"tested_on": "Mus musculus", "experiment": "Antifibrotic activity against Unilateral ureteric obstruction ligation induced C57BL/6J mouse kidney fibrosis model assessed as downregulation of COL1A1 synthesis at 50 microg/kg,ip administrated for 14 days by Western blotting analysis", "assay_type": "functional, organism-based", "details": "dose 50.0 µg/kg, time 14.0 day"}},
  "note": "The source made the active and inactive calls. No cut-off for these calls is given here. Peptide text beside a SMILES is read from it.",
  "data": [
    {"smiles": "C[C@@H](O)[C@@H]1NC(=O)[C@H](Cc2c[nH]c3ccccc23)NC(=O)[C@@H]2CCCN2C(=O)[C@H](CCCNC(=N)N)NC(=O)[C@H](Cc2c[nH]cn2)NC(=O)[C@H](CCCCN)NC(=O)[C@H]([C@@H](C)O)NC1=O", "note": "(cyclo(HRPWTTK))", "values": [
      {"measurement": "inhibition", "setting": "[1]", "value": "Active"},
      {"measurement": "inhibition", "setting": "[2]", "value": "Active"},
      {"measurement": "inhibition", "setting": "[3]", "value": "Dose-Dependent Effect"},
      {"measurement": "inhibition", "setting": "CCN2-EGFR (Homo sapiens) [4]", "value": 63.8, "unit": "%"},
      {"measurement": "inhibition", "setting": "CCN2-EGFR (Homo sapiens) [5]", "value": 76.7, "unit": "%"},
      {"measurement": "inhibition", "setting": "[6]", "value": "Dose-Dependent Effect"},
      {"measurement": "inhibition", "setting": "[7]", "value": "Active"},
      {"measurement": "inhibition", "setting": "[8]", "value": "Active"},
      {"measurement": "inhibition", "setting": "[9]", "value": "Active"},
      {"measurement": "Kd", "setting": "CCN family member 2", "value": 3.1, "unit": "µM"},
      {"measurement": "Cmax", "setting": "[10]", "value": 1060, "unit": "ng/mL"},
      {"measurement": "Tmax", "setting": "[11]", "value": 60, "unit": "min"},
      {"measurement": "half-life", "setting": "[12]", "value": 54, "unit": "min"},
      {"measurement": "AUC(0-t) at 48 h", "setting": "[13]", "value": 3030, "unit": "ng·h/mL"},
      {"measurement": "Activity", "setting": "[14]", "value": "Non-Toxic"},
      {"measurement": "Activity", "setting": "[15]", "value": "Non-Toxic"},
      {"measurement": "Activity", "setting": "[16]", "value": "Non-Toxic"},
      {"measurement": "Activity", "setting": "[17]", "value": "Non-Toxic"},
      {"measurement": "Activity", "setting": "Mus musculus [18]", "value": "Active"},
      {"measurement": "Activity", "setting": "Mus musculus [19]", "value": "Active"},
      {"measurement": "Activity", "setting": "Mus musculus [20]", "value": "Active"},
      {"measurement": "Activity", "setting": "Mus musculus [21]", "value": "Active"},
      {"measurement": "Activity", "setting": "Mus musculus [22]", "value": "Active"},
      {"measurement": "Activity", "setting": "Mus musculus [23]", "value": "Active"},
      {"measurement": "Activity", "setting": "Mus musculus [24]", "value": "Active"}
    ]}
  ]
}
